What all share (format): biochemical
For assay [1], the target named is RPS6KB1 (Homo sapiens, UniProt P23443). Description: Off-target kinase panel, ZLYTE: RPS6KB1. Particulars: read-out: Estimated IC50 (uM) RPS6KB1. The text has this: (§1) The activity data was obtained in a panel of 265 and 264 for compounds 1-1 and CC-1, respectively, using the ZLYTE and ADAPTA assay methods indicated in the table below.
(§2) The ZLYTE biochemical assay employs a fluorescence-based, coupled-enzyme format and is based on the differential sensitivity of phosphorylated and non-phosphorylated peptides to proteolytic cleavage. The peptide substrate is labeled with two fluorophores—one at each end—that make up a Fluorescence Resonance Energy Transfer (FRET) pair.
(§3) In the primary reaction, the kinase transfers the gamma-phosphate of ATP to a single tyrosine, serine or threonine residue in a synthetic FRET-peptide. In the secondary reaction, a site-specific protease recognizes and cleaves non-phosphorylated FRET-peptides. Phosphorylation of FRET-peptides suppresses cleavage by the Development Reagent. […] A ratiometric method, which calculates the ratio (the Emission Ratio) of donor emission to acceptor emission after excitation of the donor fluorophore at 400 nm, is used to quantitate reaction progress, as shown in the equation below. […]
(§4) Both cleaved and uncleaved FRET-peptides contribute to the fluorescence signals and therefore to the Emission Ratio. The extent of phosphorylation of the FRET-peptide can be calculated from the Emission Ratio. […]
(§5) 10. Read on fluorescence plate reader and analyze the data.

Assay [2] addresses CDK9 (Cyclin T1) (Homo sapiens, UniProt P50750). The assay can be described thus: Off-target kinase panel, ADAPTA: CDK9 (Cyclin T1). The settings on record: read-out: Estimated IC50 (uM) CDK9 (Cyclin T1).
Excerpt: as §1
(§6) The Adapta universal kinase assay is a homogenous, fluorescent based immunoassay for the detection of ADP. In contrast to ATP depletion assays, the Adapta assay is highly sensitive to ADP formation such that a majority of the signal change occurs in the first 10-20% conversion of ATP to ADP. This makes the Adapta universal kinase assay well suited for use with low activity kinases.
(§7) The principle of the Adapta universal kinase assay is outlined below. The assay itself can be divided into two phases: a kinase reaction phase, and an ADP detection phase. In the kinase reaction phase, all components required for the kinase reaction are added to the well, and the reaction is allowed to incubate for 60 minutes. After the reaction, a detection solution consisting of a europium labeled anti-ADP antibody, an Alexa Fluor 647 labeled ADP tracer, and EDTA (to stop the kinase reaction) is added to the assay well. […]
(§8) ADP formation is determined by calculating the emission ratio from the assay well. The emission ratio is calculated by dividing the intensity of the tracer (acceptor) emission by the intensity of the Eu (donor) emission at 615 nm as shown in the equation below. […]
(§9) 12. Read on fluorescence plate reader and analyze the data.

In assay [3] the target is LRRK2 (G2019S) (Homo sapiens, UniProt Q5S007, G2019S). Description: Off-target kinase panel, ADAPTA: LRRK2 (G2019S). The settings on record: read-out: Estimated IC50 (uM) LRRK2 (G2019S).
Chain of LRRK2 (G2019S) (Q5S007 whole entry G2019S): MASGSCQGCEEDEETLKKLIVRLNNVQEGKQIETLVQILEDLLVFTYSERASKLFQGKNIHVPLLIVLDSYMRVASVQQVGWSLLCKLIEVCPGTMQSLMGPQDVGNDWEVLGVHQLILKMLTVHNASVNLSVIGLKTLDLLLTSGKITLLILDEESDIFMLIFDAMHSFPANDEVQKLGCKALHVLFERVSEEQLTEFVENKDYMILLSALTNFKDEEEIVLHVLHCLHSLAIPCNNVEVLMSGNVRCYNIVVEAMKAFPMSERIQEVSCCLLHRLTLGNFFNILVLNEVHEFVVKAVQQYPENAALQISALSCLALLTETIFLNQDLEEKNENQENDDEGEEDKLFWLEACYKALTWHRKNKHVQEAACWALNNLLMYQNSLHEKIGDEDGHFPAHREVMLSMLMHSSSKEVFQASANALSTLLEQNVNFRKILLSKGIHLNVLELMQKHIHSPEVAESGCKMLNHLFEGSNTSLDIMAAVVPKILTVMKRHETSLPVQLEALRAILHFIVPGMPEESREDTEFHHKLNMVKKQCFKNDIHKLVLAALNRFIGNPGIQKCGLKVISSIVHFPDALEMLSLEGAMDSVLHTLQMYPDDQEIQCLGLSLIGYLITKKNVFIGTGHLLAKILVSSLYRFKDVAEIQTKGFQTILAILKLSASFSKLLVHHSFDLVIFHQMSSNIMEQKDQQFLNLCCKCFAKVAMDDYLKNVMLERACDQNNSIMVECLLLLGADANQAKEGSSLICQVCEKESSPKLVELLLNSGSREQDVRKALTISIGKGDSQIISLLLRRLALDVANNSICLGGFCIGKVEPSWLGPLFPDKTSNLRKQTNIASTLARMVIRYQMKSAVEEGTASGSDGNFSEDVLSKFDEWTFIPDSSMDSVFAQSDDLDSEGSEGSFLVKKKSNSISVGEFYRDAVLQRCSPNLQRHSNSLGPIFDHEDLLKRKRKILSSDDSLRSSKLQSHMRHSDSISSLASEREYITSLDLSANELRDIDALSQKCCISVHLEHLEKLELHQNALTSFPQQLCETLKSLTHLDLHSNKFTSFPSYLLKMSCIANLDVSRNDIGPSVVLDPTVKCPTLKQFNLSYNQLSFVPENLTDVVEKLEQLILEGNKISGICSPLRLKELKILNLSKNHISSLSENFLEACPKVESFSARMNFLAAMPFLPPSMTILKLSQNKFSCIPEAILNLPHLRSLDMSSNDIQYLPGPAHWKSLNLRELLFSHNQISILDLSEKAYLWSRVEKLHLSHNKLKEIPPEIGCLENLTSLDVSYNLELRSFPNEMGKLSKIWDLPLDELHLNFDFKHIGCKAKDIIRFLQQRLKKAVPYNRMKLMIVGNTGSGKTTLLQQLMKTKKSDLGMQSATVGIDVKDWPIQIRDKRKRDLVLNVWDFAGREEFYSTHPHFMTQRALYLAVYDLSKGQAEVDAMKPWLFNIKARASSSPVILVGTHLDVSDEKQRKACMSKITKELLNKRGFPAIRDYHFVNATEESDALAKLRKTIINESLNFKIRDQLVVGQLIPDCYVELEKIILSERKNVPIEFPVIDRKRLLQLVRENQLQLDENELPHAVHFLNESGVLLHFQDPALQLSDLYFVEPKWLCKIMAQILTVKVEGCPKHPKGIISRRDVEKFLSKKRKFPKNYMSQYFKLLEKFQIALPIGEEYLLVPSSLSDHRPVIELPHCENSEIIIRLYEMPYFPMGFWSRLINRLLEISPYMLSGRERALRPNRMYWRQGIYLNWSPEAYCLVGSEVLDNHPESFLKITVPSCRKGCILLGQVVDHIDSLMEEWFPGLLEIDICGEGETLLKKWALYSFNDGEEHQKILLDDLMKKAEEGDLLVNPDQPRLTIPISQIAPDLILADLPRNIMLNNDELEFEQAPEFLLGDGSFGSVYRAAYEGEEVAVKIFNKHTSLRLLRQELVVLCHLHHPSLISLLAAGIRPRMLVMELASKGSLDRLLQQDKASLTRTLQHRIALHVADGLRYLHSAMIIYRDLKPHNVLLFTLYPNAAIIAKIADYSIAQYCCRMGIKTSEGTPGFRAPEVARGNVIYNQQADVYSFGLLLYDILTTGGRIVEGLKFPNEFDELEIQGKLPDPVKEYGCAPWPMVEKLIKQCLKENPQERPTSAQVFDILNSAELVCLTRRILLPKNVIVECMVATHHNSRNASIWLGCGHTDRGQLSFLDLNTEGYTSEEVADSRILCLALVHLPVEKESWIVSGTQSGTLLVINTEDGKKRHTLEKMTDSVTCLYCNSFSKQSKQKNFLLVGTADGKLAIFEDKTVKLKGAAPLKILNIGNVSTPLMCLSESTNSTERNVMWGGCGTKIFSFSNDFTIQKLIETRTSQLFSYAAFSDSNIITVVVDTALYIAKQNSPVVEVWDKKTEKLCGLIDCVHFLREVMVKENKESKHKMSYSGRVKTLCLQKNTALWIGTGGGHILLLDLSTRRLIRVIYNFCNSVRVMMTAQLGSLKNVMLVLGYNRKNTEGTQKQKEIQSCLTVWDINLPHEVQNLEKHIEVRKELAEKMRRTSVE
Excerpt: as §1, §6, §7, §8, §9

Assay [4] has as its target T1, SGK2 (Homo sapiens, UniProt Q9HBY8).
T1 sequence (Q9HBY8 1-367): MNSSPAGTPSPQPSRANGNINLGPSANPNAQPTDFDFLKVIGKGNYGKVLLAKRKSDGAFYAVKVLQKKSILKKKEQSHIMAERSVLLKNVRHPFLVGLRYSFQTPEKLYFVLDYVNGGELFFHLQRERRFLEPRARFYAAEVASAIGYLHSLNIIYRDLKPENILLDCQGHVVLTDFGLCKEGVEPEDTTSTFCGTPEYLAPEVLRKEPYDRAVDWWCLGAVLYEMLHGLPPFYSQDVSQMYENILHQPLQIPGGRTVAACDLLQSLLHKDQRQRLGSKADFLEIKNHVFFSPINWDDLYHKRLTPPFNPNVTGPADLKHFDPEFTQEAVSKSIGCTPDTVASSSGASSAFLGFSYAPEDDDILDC
Description: Off-target kinase panel, ZLYTE: SGK2. Particulars: read-out: Estimated IC50 (uM) SGK2.
Excerpt: as §1, §2, §3, §4, §5

Assay [5] has as its target CDK5/P25 (Homo sapiens, UniProt Q00535). Description: Off-target kinase panel, ZLYTE: CDK5/P25. Particulars: read-out: Estimated IC50 (uM) CDK5/P25.
Excerpt: as §1, §2, §3, §4, §5

SMILES strings stand for the structures.

Chain of CDK9 (Cyclin T1) (P50750 whole entry): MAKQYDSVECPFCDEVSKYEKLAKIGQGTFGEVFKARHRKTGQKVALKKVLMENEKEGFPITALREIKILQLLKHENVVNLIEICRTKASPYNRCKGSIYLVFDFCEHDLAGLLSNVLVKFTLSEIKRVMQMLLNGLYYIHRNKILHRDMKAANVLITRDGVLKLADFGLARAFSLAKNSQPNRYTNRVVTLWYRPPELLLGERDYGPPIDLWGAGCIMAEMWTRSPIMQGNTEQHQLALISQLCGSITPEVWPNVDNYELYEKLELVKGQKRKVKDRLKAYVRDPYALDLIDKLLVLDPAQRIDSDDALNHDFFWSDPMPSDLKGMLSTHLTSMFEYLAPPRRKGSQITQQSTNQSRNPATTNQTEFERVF
Chain of CDK9 (Cyclin T1) (O60563 whole entry partner): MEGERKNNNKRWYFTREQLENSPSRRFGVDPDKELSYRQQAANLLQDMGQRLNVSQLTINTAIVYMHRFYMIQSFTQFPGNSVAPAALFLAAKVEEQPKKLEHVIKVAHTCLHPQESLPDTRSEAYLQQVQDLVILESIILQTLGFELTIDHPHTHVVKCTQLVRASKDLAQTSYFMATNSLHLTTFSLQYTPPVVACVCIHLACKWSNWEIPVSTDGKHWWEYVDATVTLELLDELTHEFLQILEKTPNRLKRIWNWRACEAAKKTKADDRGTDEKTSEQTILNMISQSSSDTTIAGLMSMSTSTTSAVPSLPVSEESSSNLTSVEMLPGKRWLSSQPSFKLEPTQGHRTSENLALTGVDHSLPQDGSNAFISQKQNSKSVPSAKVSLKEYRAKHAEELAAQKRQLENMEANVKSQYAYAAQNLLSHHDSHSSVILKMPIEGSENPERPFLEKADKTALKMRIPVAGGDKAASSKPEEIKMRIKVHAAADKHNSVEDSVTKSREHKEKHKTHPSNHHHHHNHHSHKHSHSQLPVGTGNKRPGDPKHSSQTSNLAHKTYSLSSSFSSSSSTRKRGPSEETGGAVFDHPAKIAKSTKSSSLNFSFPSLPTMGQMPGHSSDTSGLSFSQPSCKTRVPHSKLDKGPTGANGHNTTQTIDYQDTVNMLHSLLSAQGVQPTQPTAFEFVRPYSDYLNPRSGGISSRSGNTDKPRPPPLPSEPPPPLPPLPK
Chain of RPS6KB1 (P23443 whole entry): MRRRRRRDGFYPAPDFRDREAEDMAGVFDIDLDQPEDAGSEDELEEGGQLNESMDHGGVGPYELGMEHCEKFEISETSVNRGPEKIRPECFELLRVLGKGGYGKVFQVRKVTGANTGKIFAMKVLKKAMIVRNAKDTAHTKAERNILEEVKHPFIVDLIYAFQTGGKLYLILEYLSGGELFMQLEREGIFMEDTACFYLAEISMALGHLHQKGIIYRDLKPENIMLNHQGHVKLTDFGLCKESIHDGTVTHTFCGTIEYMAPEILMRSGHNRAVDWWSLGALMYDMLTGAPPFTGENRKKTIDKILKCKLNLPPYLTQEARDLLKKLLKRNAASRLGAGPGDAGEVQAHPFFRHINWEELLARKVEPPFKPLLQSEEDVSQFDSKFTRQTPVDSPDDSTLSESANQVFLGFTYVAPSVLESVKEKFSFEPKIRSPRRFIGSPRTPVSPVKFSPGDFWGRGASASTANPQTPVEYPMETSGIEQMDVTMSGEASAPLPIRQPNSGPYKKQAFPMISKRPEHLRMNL
Chain of CDK5/P25 (Q00535 whole entry): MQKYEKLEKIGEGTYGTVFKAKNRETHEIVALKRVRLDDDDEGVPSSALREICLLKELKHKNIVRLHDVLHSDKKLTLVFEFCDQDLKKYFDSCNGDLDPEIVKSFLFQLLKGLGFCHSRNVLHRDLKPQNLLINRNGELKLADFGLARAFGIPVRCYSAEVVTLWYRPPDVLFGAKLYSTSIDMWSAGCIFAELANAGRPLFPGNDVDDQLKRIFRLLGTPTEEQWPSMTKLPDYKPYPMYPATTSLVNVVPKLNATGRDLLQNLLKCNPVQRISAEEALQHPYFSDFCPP
Chain of CDK5/P25 (Q15078 99-307 partner limits assumed): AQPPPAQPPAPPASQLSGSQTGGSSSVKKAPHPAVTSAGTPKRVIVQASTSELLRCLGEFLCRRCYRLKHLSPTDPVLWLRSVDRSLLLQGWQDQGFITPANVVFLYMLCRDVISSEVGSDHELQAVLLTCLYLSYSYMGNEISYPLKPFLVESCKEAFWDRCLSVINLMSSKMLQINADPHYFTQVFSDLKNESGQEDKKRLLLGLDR

For the molecule `C[C@@H]1CN(c2cc(Br)cc3[nH]ncc23)CC[C@]12NC(=O)NC2=O` (single isomer, unassigned) [Compound 1-1], the IC50 in assay [1] is 1.9 µM; in assay [2], > 2 µM; in assay [3] it was > 2 µM; in assay [4], > 2 µM; in assay [5] it was > 2 µM.
Consider `O=C1NC(=O)C2(CCN(c3cc(Cl)cc4[nH]ncc34)CC2)N1` [CC-1], for which the IC50 in assay [1] was 1.7 µM; in assay [2], 0.15 µM; in assay [3], 0.94 µM; in assay [4] it was 1.3 µM; in assay [5] it was 1.2 µM.

Values taken from patent US20220396577A1, “NOVEL SUBSTITUTED 1,3-8-TRIAZASPIRO[4,5] DECANE-2,4-DIONE COMPOUNDS AS INDOLEAMINE 2,3-DIOXYGENASE (IDO) AND/OR TRYPTOPHAN 2,3-DIOXYGENASE (TDO) INHIBITORS” (Merck Sharp & Dohme LLC, priority 2019, published 2022).
